Here are results for five compounds from patent publication US20040242665A1, “Hair composition containing a styrylpyrazole compound, and use thereof for stimulating or inducing hair or eyelash growth and/or reducing loss thereof” (SOCIETE L'OREAL S.A., priority 2002, published 2004).

The target of one experiment is T1, 15-PGDH (Homo sapiens, UniProt P15428).
T1 construct: made in house
T1 sequence (P15428 1-266): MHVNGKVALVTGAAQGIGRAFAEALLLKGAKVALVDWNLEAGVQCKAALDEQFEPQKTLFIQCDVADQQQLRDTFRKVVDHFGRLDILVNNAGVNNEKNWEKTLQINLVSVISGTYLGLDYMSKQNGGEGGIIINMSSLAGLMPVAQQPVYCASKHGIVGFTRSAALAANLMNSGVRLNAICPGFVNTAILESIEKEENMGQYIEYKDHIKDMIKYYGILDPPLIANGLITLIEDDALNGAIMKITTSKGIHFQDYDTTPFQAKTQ
As to the kind of experiment: Test on 15-PGDH (spectrophotometric, 340 nm, PGE2 and NAD). In kind it is biochemical. As to conditions: for IC50: pH 7.4 Tris buffer, 37° C., 50 μM prostaglandin E2, read-out: Inhibition of 15-PGDH IC50dh. The method, then:
The enzyme 15-PGDH is obtained as described in patent application FR 02/05067 filed in the name of L'Oreal, as a suspension in a medium adjusted to a concentration of 0.3 mg/ml and then blocked at −80° C. For the purposes of the test, this suspension is thawed and stored in ice.
In parallel, a 100 mM, pH 7.4 Tris buffer containing 0.1 mM of dithiothreitol (D5545, Sigma-Aldrich, L'isle D'Abeau Chesne, BP 701, 38297, Saint Quentin Fallavier), 1.5 mM of P-NAD (N6522, Sigma-Aldrich, L'isle D'Abeau Chesne, BP 701, 38297, Saint Quentin Fallavier), and 50 μM of prostaglandin E2 (P4172, Sigma-Aldrich, L'isle D'Abeau Chesne, BP 701, 38297, Saint Quentin Fallavier) is prepared.
0.965 ml of this buffer (brought to 37° C. beforehand) is introduced into the cuvette of a spectrophotometer (Perkin-Elmer, Lambda 2) thermostatically maintained at 37° C., the measuring wavelength of which is set at 340 nm. 0.035 ml of enzymatic suspension at 37° C. is introduced into the cuvette concomitantly with the recording (corresponding to an increase in the optical density at 340 nm). The maximum reaction rate is recorded.

The next experiment concerns the target T2, PGF synthase (Homo sapiens, UniProt P42330).
T2 construct: made in house
T2 sequence (P42330 1-323): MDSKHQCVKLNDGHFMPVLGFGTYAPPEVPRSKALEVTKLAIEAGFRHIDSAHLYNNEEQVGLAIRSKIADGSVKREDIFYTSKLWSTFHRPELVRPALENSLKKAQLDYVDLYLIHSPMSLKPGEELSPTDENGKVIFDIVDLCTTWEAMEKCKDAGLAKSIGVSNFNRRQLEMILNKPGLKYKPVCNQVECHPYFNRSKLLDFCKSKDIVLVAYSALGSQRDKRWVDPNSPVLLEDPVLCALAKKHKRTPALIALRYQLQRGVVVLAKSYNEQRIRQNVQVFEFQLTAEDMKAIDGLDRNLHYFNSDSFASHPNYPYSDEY
The experiment can be described thus: Test on PGF synthase (spectrophotometric, 340 nm, 9,10-phenanthrenequinone and NADPH). The experiment is classed as biochemical. Particulars: pH 6.5 Tris buffer, 37° C., 20 μM 9,10-phenanthrenequinone, 100 μM β-NADPH; read-out: Inhibition of PGF synthase IC50fs. The method, then:
The enzyme PGFS is obtained as described in document FR-A-02/05067, at a concentration of 0.5 mg/ml, as a suspension in a suitable medium, and blocked at −80° C. For the purposes of the test, this suspension is thawed and stored in ice.
In parallel, a 100 mM, pH 6.5 Tris buffer containing 20 μm of 9,10-phenanthrenequinone* (P2896, Sigma-Aldrich, L'isle D'Abeau Chesne, BP 701, 38297, Saint Quentin Fallavier) and 100 μM of β-NADPH (N1630, Sigma-Aldrich, L'isle D'Abeau Chesne, BP 701, 38297, Saint Quentin Fallavier) is prepared in a brown flask (protected from light).
*A stock solution with a titre of 1 mM is prepared in absolute ethanol and brought to 40° C.; the flask is placed in an ultrasound tank to facilitate the dissolution of the product.
0.950 ml of this buffer (brought to 37° C. beforehand) is introduced into the cuvette of a spectrophotometer (Perkin-Elmer, Lambda 2) thermostatically maintained at 37° C., the measuring wavelength of which is set at 340 nm. 0.05 ml of enzymatic suspension at 37° C. is introduced into the cuvette concomitantly with the recording (corresponding to a reduction in the optical density at 340 nm). The maximum reaction rate is recorded.
The test values (containing compound (I)) are compared with the control value (without compound (I)); the results indicated represent the concentration at which compound (I) inhibits 50% of the enzymatic activity of PGFS, noted as IC50fs.

As for `COc1ccccc1/C=C(\C#N)c1nn(-c2ccccc2)c(N)c1C#N` [Compound 9], on 15-PGDH, the IC50 stood at 5 µM.
As to `N#C/C(=C\c1ccccc1)c1nn(-c2ccccc2)c(N)c1C#N` [Compound 8], the “Selectivity (IC50fs/IC50dh ratio)” value on 15-PGDH (15-PGDH relative to PGF synthase) is over 1.5. Also, the IC50 is 50 µM on 15-PGDH and over 75 µM at PGF synthase.
Regarding `N#C/C(=C\c1c(Cl)cccc1Cl)c1nn(-c2ccccc2)c(N)c1C#N` [Compound 6], the results for the IC50 on 15-PGDH and on PGF synthase were 0.8 µM and over 50 µM, respectively.
In the case of `N#C/C(=C\c1c(Cl)cccc1Cl)c1nn(CCO)c(N)c1C#N` [Compound 1a], the results for the IC50 at 15-PGDH and on PGF synthase were 3 µM and over 50 µM, respectively.
Regarding `N#C/C(=C\c1ccccc1Cl)c1nn(-c2ccccc2)c(N)c1C#N` [Compound 7], the IC50 at 15-PGDH was 3 µM; on PGF synthase it was over 50 µM.
